What was measured:
Assay in all cases: relative viability (nuclei count vs DMSO), 5 days (fraction); higher = more cells survive
[1] = tested on: 201T
Outline: (§1)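 Lung cancer cell lines, seeded in 1536-well plates, were treated the following day by pin tool with a single drug or with five library-drug doses (not always all listed) in √10 steps on top of a fixed anchor-drug dose. Cells were fixed and nuclei stained in one step after 5 days, and nuclei were counted. Relative viability is the nuclei count for treated wells divided by that for vehicle wells, reported as medians of duplicate plates.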

[2] = tested on: A-427
Outline: as §1

[3] = tested on: BEN
Outline: as §1

[4] = tested on: EKVX
Outline: as §1

[5] = tested on: EMC-BAC-2
Outline: as §1

[6] = tested on: HCC-15
Outline: as §1

[7] = tested on: HCC-366
Outline: as §1

[8] = tested on: HCC-78
Outline: as §1

[9] = tested on: HOP-62
Outline: as §1

[10] = tested on: LK-2
Outline: as §1

[11] = tested on: NCI-H1734
Outline: as §1

[12] = tested on: NCI-H1915
Outline: as §1

[13] = tested on: NCI-H1993
Outline: as §1

[14] = tested on: NCI-H2405
Outline: as §1

[15] = tested on: NCI-H460
Outline: as §1

[16] = tested on: NCI-H522
Outline: as §1

[17] = tested on: NCI-H647
Outline: as §1

[18] = tested on: PC-14
Outline: as §1

What does the source list for Cc1csc(=NC2CCCCC2)n1/N=C/c1ccc(O)c(O)c1O [MIM1] + NC(=O)Nc1cc(-c2cccc(F)c2)sc1C(=O)N[C@H]1CCCNC1 [AZD7762] (partner 0.2 µM)?
relative viability ([1]; first compound 0.2 µM): 0.62; relative viability ([1]; first compound 0.6325 µM): 0.691; relative viability ([1]; first compound 2 µM): 0.588; relative viability ([1]; first compound 6.325 µM): 0.453; relative viability ([1]; first compound 20 µM): 0.305; relative viability ([2]; first compound 0.2 µM): 0.706; relative viability ([2]; first compound 0.6325 µM): 0.7; relative viability ([2]; first compound 2 µM): 0.651; relative viability ([2]; first compound 6.325 µM): 0.525; relative viability ([2]; first compound 20 µM): 0.395; relative viability ([3]; first compound 0.2 µM): 0.781; relative viability ([3]; first compound 0.6325 µM): 0.645; relative viability ([3]; first compound 2 µM): 0.67; relative viability ([3]; first compound 6.325 µM): 0.707; relative viability ([3]; first compound 20 µM): 0.336; relative viability ([4]; first compound 0.2 µM): 0.697; relative viability ([4]; first compound 0.6325 µM): 0.616; relative viability ([4]; first compound 2 µM): 0.625; relative viability ([4]; first compound 6.325 µM): 0.599; relative viability ([4]; first compound 20 µM): 0.44; relative viability ([5]; first compound 0.2 µM): 1.12; relative viability ([5]; first compound 0.6325 µM): 0.776; relative viability ([5]; first compound 2 µM): 1.09; relative viability ([5]; first compound 6.325 µM): 0.999; relative viability ([5]; first compound 20 µM): 0.314; relative viability ([6]; first compound 0.2 µM): 1.2; relative viability ([6]; first compound 2 µM): 1.23; relative viability ([6]; first compound 6.325 µM): 0.808; relative viability ([6]; first compound 20 µM): 0.179; relative viability ([7]; first compound 0.2 µM): 0.318; relative viability ([7]; first compound 2 µM): 0.181; relative viability ([7]; first compound 6.325 µM): 0.093; relative viability ([7]; first compound 20 µM): 0.0374; relative viability ([8]; first compound 0.2 µM): 0.548; relative viability ([8]; first compound 2 µM): 0.611; relative viability ([8]; first compound 6.325 µM): 0.507; relative viability ([8]; first compound 20 µM): 0.662; relative viability ([9]; first compound 0.2 µM): 0.557; relative viability ([9]; first compound 0.6325 µM): 0.662; relative viability ([9]; first compound 2 µM): 0.756; relative viability ([9]; first compound 6.325 µM): 0.506; relative viability ([9]; first compound 20 µM): 0.0832; relative viability ([10]; first compound 0.2 µM): 0.423; relative viability ([10]; first compound 0.6325 µM): 0.287; relative viability ([10]; first compound 2 µM): 0.333; relative viability ([10]; first compound 6.325 µM): 0.324; relative viability ([10]; first compound 20 µM): 0.25; relative viability ([11]; first compound 0.2 µM): 0.524; relative viability ([11]; first compound 0.6325 µM): 0.467; relative viability ([11]; first compound 2 µM): 0.492; relative viability ([11]; first compound 6.325 µM): 0.417; relative viability ([11]; first compound 20 µM): 0.158; relative viability ([12]; first compound 0.2 µM): 0.691; relative viability ([12]; first compound 0.6325 µM): 0.495; relative viability ([12]; first compound 2 µM): 0.574; relative viability ([12]; first compound 6.325 µM): 0.384; relative viability ([12]; first compound 20 µM): 0.283; relative viability ([13]; first compound 0.2 µM): 0.704; relative viability ([13]; first compound 0.6325 µM): 0.761; relative viability ([13]; first compound 2 µM): 0.73; relative viability ([13]; first compound 6.325 µM): 0.569; relative viability ([13]; first compound 20 µM): 0.35; relative viability ([14]; first compound 0.2 µM): 0.835; relative viability ([14]; first compound 0.6325 µM): 0.806; relative viability ([14]; first compound 2 µM): 0.772; relative viability ([14]; first compound 6.325 µM): 0.667; relative viability ([14]; first compound 20 µM): 0.849; relative viability ([15]; first compound 0.2 µM): 0.538; relative viability ([15]; first compound 0.6325 µM): 0.629; relative viability ([15]; first compound 2 µM): 0.526; relative viability ([15]; first compound 6.325 µM): 0.251; relative viability ([15]; first compound 20 µM): 0.0582; relative viability ([16]; first compound 0.2 µM): 0.891; relative viability ([16]; first compound 0.6325 µM): 0.957; relative viability ([16]; first compound 2 µM): 0.824; relative viability ([16]; first compound 6.325 µM): 0.78; relative viability ([16]; first compound 20 µM): 0.511; relative viability ([17]; first compound 0.2 µM): 0.502; relative viability ([17]; first compound 0.6325 µM): 0.379; relative viability ([17]; first compound 6.325 µM): 0.409; relative viability ([17]; first compound 20 µM): 0.073; relative viability ([18]; first compound 0.2 µM): 0.353; relative viability ([18]; first compound 0.6325 µM): 0.244; relative viability ([18]; first compound 2 µM): 0.288; relative viability ([18]; first compound 6.325 µM): 0.311; relative viability ([18]; first compound 20 µM): 0.111

Source: the supplement of paper PMC10307832
